# Assay results taken from ChEMBL document CHEMBL1201862, “PubChem BioAssay data set” (2004).
# Calls of active or inactive are those of the source. Cut-off read from the data, not from the text of the source, for most assays here: actives have a measured EC50 and inactives only a lower limit.
# Columns and labels:
# [1] = Luminescence Cell-Based Dose Confirmation HTS to Identify Inhibitors of Platelet Dense Granule Release. [Related pubchem assays: 1663 (Primary HTS), 1678 (Summary of Project)]; assay type: functional
# [2] = target: Luciferin 4-monooxygenase (Photinus pyralis, UniProt P08659); assay: inhibition of purified Photinus pyralis luciferase – biochemical, luminescence, dose response (AID 1891)
# [3] = target: T1, Heat shock factor protein 1 (Mus musculus, UniProt P38532); assay: decrease of HSF1-responsive luciferase luminescence – cell-based, NIH3T3, dose retest, confirmation (AID 2382); assay type: functional;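 note: NIH3T3 fibroblasts with HSF1-driven luciferase reporter stressed by proteasome inhibitor MG132; luminescence from HSF1-driven luciferase expression after 8 hours of MG132 stress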
# T1 sequence (P38532 whole entry): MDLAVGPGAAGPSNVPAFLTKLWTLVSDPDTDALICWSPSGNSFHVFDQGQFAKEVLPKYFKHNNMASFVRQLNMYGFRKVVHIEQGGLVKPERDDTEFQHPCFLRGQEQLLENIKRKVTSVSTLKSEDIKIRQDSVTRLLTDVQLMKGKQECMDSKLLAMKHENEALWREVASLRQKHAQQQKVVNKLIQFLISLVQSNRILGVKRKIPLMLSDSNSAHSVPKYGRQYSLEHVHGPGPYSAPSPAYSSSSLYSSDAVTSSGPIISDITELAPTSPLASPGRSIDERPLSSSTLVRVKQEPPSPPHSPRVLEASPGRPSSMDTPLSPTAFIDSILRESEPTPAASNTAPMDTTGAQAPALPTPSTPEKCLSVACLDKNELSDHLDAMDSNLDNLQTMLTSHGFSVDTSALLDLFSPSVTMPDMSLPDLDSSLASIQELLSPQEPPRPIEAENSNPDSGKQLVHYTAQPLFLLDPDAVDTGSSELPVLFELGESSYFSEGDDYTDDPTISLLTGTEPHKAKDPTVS
# [4] = target: T2, Replicative DNA helicase DnaB (Mycobacterium tuberculosis, UniProt P9WMR3); assay: DnaB intein splicing inhibitors, dose response, biochemical, cell-free fluorescence (AID 449749); assay type: functional
# T2 sequence (P9WMR3 whole entry): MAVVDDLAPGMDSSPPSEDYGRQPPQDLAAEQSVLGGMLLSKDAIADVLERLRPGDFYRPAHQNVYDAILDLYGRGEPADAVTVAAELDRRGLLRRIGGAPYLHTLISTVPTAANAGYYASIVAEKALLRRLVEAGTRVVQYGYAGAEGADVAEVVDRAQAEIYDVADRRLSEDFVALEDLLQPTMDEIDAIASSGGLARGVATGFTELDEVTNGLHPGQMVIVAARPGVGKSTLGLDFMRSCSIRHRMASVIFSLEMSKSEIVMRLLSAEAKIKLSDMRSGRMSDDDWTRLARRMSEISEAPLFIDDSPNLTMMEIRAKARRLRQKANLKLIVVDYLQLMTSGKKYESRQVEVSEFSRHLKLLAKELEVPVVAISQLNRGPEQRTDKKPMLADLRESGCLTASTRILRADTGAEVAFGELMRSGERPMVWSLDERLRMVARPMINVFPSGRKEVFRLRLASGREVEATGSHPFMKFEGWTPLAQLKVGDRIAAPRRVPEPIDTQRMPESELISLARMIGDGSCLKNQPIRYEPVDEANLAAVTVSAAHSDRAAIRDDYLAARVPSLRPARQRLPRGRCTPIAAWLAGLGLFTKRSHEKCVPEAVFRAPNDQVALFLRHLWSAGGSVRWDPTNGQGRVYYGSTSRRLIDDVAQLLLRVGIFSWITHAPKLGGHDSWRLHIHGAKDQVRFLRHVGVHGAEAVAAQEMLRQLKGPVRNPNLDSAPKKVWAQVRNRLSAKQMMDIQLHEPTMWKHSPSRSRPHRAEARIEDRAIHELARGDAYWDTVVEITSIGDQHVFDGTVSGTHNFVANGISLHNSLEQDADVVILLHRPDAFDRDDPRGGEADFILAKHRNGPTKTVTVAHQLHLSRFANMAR
# [5] = luciferase reporter signal suppression in cells – H4 neuroglioma cells, luminescence, dose response (AID 1990); assay type: functional, cell-based
# Protein RecA = target: T3, Protein RecA (Mycobacterium tuberculosis, UniProt P9WHJ3); assay: Fluorescence Cell-Free Homogeneous Dose Retest to Identify Inhibitors of RecA-Intein Splicing Activity. [Related pubchem assays (depositor defined):AID2097, AID2223, AID489010, AID492950]; assay type: functional
# T3 sequence (P9WHJ3 whole entry): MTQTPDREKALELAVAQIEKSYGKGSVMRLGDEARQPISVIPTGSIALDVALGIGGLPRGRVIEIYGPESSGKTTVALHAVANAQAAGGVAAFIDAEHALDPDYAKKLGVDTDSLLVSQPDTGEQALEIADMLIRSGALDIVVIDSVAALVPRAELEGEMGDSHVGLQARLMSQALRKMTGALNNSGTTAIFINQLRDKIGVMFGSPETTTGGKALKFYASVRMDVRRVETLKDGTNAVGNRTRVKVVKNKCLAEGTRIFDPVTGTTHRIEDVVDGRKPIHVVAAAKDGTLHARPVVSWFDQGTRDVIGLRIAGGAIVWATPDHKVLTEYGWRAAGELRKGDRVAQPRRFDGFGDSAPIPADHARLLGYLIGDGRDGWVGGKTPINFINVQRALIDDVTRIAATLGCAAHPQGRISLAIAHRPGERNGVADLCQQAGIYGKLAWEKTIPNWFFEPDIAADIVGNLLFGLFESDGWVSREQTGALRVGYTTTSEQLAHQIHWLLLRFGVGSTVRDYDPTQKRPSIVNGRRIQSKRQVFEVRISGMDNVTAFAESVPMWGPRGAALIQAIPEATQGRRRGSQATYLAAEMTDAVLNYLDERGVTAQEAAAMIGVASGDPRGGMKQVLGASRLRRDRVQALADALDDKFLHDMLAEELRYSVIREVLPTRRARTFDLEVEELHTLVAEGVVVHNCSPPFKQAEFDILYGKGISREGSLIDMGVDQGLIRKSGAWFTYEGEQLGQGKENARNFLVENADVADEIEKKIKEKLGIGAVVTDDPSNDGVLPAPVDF
# [6] = Luminescence Cell-Based Dose Response HTS to Identify Inhibitors of 5'UTR Stem-Loop Driven Prion Protein mRNA Translation in H4 Neuroglioblastoma Cells. [Related pubchem assays: 1827 (Project Summary), 1813 (Primary HTS)]; assay type: functional
# [7] = alpha-synuclein stem-loop luciferase translation blockers – H4 neuroglioma cells, luminescence, confirmation (AID 1988); assay type: functional, cell-based
# Streptococcus = assay: GAS UMAA2166 growth inhibition – luminescence, BacTiterGlo, counter-screen for streptokinase expression inhibitor project, dose response (AID 1915); assay type: functional, organism-based;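 note: potency for reduction of bacterial viability or growth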
# [8] = target: T4, Corticotropin-releasing factor receptor 2/Corticotropin-releasing factor-binding protein (Homo sapiens, UniProt P24387+Q13324); assay: Dose Response confirmation of uHTS hits for small molecule antagonists of the CRF-binding protein and CRF-R2 receptor complex.; assay type: functional; conditions: read-out: IC50_Mean
# T4 sequence (Q13324 whole entry): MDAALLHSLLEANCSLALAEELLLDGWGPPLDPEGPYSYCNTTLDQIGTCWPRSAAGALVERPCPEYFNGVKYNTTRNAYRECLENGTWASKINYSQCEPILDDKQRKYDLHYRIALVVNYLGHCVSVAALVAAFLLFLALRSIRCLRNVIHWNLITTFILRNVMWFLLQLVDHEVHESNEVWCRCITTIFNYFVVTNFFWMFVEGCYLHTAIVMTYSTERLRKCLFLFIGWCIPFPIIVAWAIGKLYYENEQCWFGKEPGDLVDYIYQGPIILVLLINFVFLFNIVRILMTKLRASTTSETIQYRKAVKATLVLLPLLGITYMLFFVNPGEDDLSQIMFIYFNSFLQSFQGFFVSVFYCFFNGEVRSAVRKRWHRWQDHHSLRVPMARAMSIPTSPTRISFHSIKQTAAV
# T4 sequence (P24387 whole entry): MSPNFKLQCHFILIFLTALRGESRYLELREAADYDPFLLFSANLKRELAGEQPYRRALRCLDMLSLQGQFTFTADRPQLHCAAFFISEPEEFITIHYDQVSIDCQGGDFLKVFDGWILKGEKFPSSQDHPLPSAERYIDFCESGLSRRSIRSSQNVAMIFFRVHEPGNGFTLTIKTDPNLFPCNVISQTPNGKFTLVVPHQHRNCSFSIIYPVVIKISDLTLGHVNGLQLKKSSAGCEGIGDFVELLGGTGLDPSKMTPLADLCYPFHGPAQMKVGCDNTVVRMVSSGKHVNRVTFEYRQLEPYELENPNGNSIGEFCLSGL
# [9] = tested on: Streptococcus sp. 'group A'; assay: Streptococcus pyogenes SK(-)GAS viability under kanamycin – luminescence, BacTiterGlo, confirmation, counter-screen for streptokinase expression inhibitor project, dose response (AID 1900); assay type: functional, organism-based
# [10] = target: T4, Corticotropin-releasing factor receptor 2/Corticotropin-releasing factor-binding protein; assay: activators of CRF receptor 2 with binding protein – uHTS hits, confirmation (AID 602473); assay type: functional; conditions: read-out: EC50_Mean
# H4 = assay: Luminescence Cell-Based Dose Response HTS to Identify Activators of 5'UTR Stem-Loop Driven Prion Protein mRNA Translation in H4 Neuroglioblastoma Cells. [Related pubchem assays: 1829 (Project Summary), 1814 (Primary HTS)]; assay type: functional; conditions: Homo sapiens
# [11] = Luminescence Cell-Based Dose Response HTS to Identify Activators of Luciferase Translation or Activity in H4 […] Cells. [Related pubchem assays: 1829 (Project Summary), 1814 (Primary HTS)]; assay type: functional
# [12] = Luminescence Cell-Based Dose Confirmation HTS to Identify Activators of 5'UTR Stem-Loop Driven Alpha-Synuclein mRNA Translation in H4 Neuroglioblastoma Cells. [Related pubchem assays: 1829 (Project Summary), 1814 (Primary HTS)]; assay type: functional
# Chain of Luciferin 4-monooxygenase (P08659 whole entry): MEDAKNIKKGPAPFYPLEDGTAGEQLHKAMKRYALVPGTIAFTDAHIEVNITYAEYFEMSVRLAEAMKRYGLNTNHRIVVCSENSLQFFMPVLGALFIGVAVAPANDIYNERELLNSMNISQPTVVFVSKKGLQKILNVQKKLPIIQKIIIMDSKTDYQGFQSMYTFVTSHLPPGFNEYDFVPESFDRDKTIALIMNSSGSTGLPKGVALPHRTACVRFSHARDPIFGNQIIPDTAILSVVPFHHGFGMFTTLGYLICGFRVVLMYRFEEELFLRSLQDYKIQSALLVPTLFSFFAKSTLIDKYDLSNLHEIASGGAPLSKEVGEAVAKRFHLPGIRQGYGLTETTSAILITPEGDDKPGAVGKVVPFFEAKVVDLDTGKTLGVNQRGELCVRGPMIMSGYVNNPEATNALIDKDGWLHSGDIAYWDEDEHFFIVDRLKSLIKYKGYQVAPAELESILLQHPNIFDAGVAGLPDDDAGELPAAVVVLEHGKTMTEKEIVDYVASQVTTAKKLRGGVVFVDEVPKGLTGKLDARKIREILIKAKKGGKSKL
SMILES,EC50 [1],EC50 [2],EC50 [3],further results
O=S(=O)(c1ccc(F)cc1)N(Cc1ccco1)Cc1cc2ccccc2nc1O,> 112 µM (not active),> 112 µM (not active),,
CCOC(=O)c1cnn(-c2ccccc2)c1-n1cccc1,,,> 195 µM (not active),
COc1cc(OC)c2c(c1)OCC1CON(C)C21 (stereo not drawn),,,> 195 µM (not active),
CCOc1ccc(C2C(C(=O)NC)=C(C)Nc3nc4ccccc4n32)cc1OC (stereo not drawn),> 112 µM (not active),> 112 µM (not active),,
O=[N+]([O-])c1ccc(N2CCCC(C(F)(F)F)C2)c2ccncc12 (stereo not drawn),,,,AC50 [4]: > 380 µM (inactive); EC50 [5]: > 120 µM (not active); EC50 (Protein RecA): 10.8 µM (active); EC50 [6]: > 120 µM (not active); EC50 [7]: > 120 µM (not active)
O=C(CSc1ccccc1)Nc1cccc(NC(=O)c2ccco2)c1,,,> 195 µM (not active),
CCc1nn2c(=O)c(S(=O)(=O)Nc3cccc(F)c3)c(C)nc2s1,,,> 195 µM (not active),
CCCN(Cc1ccccc1)C(=S)NC(=O)c1ccccc1[N+](=O)[O-],,,> 195 µM (not active),
Cn1ccnc1SCC(=O)Nc1ccc2c(c1)OC(F)(F)O2,> 112 µM (not active),> 112 µM (not active),,
O=C(Nc1ccccn1)c1c(O)c2cccc3c2n(c1=O)CCC3,> 112 µM (not active),> 112 µM (not active),,
N#C/C(=C(/O)Cc1cccc2ccccc12)c1nc2ccccc2s1,,,,EC50 (Streptococcus): 3.17 µM (active); IC50 [8]: 2.49 µM (active); EC50 [9]: 2.91 µM (active); EC50 [10]: 3.14 µM (active)
Cc1ccc(-c2cnn(-c3ccccc3)c2N)cc1,2.57 µM (active),1.92 µM (active),,
S=C(Nc1ccc(Nc2ccccc2)cc1)NN1CCOCC1,,,> 195 µM (not active),EC50 (H4): > 120 µM (not active); EC50 [11]: 56.1 µM (active); EC50 [12]: > 120 µM (not active)
